One series has as its target human C5 (Homo sapiens, UniProt P01031). The experiment in a line: SPR multi-cycle kinetics, binding to human C5.
In series [1] the test system is C5 activation (C5b-6), classical pathway. The experiment in a line: Classical pathway. Type of series: biochemical.
Series [2] relates to C5 activation (C5b-6), alternative pathway. Description: Alternative pathway. Type of series: biochemical.
Another series in a line: Solubility. The conditions noted are these: reason for lower in vivo dose of 1 mg/kg. Type of series: physicochemical.
Series [3] can be described thus: Plasma pharmacokinetics after intravenous bolus. Type of series: in vivo, Sprague Dawley rats. Particulars: male, Sprague-Dawley, rat.
A further series has as its target rat C5 protein (Rattus norvegicus, UniProt P08650). The experiment in a line: SPR single-cycle kinetics, binding to rat C5.
Series [4] is described as follows: Plasma stability, mouse plasma. Type of series: in vitro ADME. Particulars: plasma (lithium heparin).
Series [5] is described as follows: Plasma stability, human plasma. Type of series: in vitro ADME. Particulars: plasma (lithium heparin).
Series [6] can be described thus: Plasma stability, rat plasma. Type of series: in vitro ADME. The conditions noted are these: plasma (lithium heparin).

Bridge positions count the residues as written; N and C are the ends. Ends that are not written are not given here. Peptide text beside a SMILES is read from it. * marks the point of attachment. Palmitoyl = CCCCCCCCCCCCCCCC(=O)*

human C5, sequence (P01031 19-673 limits assumed): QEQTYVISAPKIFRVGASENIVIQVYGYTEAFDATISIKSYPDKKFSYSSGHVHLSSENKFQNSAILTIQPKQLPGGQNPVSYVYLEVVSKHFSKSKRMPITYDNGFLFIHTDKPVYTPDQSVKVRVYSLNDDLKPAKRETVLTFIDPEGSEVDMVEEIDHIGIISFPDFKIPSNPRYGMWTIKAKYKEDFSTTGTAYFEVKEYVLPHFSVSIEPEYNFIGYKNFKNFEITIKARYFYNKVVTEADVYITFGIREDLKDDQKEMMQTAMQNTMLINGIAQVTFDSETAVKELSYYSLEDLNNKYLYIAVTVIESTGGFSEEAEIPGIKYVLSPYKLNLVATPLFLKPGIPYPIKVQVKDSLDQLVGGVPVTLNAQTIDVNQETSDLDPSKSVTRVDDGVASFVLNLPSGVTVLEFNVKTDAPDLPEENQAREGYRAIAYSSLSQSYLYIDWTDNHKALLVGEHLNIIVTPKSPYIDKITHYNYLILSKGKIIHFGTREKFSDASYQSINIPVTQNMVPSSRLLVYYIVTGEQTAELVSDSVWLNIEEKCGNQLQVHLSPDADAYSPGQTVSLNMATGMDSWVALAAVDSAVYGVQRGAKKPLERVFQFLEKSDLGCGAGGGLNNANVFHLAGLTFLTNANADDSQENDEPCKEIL
human C5, sequence (P01031 678-1676 limits assumed): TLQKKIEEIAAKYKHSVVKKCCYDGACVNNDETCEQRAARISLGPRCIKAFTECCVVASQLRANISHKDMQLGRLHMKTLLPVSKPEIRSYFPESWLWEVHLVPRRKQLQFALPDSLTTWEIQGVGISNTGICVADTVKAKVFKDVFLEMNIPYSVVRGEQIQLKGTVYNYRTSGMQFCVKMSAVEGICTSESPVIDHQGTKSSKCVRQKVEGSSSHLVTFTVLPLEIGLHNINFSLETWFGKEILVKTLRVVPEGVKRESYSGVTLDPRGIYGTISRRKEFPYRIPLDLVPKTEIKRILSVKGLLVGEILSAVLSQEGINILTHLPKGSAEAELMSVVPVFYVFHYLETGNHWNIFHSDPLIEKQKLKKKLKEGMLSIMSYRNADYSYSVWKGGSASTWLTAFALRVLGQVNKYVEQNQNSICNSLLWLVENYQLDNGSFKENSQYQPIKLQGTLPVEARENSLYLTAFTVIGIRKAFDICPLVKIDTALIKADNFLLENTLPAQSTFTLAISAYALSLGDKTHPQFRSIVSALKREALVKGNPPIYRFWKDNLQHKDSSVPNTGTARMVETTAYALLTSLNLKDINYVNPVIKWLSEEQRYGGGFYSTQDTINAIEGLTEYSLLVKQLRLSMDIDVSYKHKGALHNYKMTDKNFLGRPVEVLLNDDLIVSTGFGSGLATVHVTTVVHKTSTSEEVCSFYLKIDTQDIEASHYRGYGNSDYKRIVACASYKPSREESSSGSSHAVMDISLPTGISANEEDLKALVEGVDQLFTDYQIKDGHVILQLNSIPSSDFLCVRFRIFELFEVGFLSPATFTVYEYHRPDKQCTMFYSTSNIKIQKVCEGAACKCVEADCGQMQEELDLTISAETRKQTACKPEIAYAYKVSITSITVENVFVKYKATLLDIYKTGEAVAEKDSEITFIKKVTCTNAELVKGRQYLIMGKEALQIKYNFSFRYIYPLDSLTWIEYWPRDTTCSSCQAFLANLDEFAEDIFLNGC
rat C5 protein, sequence (P08650 19-1681): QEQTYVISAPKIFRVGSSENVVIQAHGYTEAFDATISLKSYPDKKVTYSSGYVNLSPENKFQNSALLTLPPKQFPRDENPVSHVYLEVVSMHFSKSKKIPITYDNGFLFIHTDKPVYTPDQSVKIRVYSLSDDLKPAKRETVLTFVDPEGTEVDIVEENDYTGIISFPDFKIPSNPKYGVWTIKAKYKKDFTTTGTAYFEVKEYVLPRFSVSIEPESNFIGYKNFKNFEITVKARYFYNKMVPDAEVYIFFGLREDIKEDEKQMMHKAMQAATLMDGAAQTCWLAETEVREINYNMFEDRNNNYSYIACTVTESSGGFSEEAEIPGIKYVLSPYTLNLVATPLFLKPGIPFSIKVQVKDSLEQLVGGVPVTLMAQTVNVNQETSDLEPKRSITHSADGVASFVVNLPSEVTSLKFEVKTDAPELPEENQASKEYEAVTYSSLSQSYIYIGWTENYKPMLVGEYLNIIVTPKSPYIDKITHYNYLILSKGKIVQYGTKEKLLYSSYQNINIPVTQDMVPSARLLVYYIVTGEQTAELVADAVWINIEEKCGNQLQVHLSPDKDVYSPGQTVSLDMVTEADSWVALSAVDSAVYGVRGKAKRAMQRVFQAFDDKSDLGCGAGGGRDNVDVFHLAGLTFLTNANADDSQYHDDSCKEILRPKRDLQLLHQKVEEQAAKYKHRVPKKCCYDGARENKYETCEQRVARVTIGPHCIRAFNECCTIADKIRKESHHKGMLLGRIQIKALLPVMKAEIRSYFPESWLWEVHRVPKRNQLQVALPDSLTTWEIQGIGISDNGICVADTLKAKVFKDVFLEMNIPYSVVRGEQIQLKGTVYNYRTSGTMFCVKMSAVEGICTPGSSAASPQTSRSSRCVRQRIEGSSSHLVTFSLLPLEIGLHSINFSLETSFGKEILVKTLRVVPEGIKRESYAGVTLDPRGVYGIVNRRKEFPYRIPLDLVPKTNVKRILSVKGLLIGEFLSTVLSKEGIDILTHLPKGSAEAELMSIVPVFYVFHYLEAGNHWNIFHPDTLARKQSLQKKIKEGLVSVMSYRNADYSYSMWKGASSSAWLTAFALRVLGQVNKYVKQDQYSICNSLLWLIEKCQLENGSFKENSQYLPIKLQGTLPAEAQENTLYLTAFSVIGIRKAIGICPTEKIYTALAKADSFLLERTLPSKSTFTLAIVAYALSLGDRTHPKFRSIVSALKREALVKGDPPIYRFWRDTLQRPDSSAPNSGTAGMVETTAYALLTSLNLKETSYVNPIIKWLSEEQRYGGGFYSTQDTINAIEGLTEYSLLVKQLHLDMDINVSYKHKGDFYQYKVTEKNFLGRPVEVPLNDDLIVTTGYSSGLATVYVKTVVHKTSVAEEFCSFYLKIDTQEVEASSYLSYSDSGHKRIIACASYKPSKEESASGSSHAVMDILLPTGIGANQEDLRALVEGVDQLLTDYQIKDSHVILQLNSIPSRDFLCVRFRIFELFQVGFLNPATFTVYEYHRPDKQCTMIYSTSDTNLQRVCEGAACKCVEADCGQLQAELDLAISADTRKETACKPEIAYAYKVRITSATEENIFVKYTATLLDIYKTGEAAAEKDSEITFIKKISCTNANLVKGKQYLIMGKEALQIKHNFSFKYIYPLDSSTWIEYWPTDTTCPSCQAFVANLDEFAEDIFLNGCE

With `CSCC[C@@H]1NC(=O)[C@@H]2CCCN2C(=O)[C@@H](NC(=O)[C@@H]2CSSC[C@H](NC(=O)[C@@H](N)CO)C(=O)N3CCC[C@H]3C(=O)N[C@@H](CC(=O)O)C(=O)NCC(=O)N[C@@H](Cc3ccccc3)C(=O)N[C@@H](CO)C(=O)N[C@@H](Cc3ccc(O)cc3)C(=O)N[C@@H](CCCNC(=N)N)C(=O)N[C@@H](CO)C(=O)N[C@@H](Cc3c[nH]c4ccccc34)C(=O)N[C@@H](CC(=O)O)C(=O)N[C@@H](CC(=O)O)C(=O)N[C@@H](Cc3ccccc3)C(=O)N2)CSSC[C@@H](C(=O)N[C@@H](CC(C)C)C(=O)N[C@@H](C)C(=O)N2CCC[C@H]2C(=O)N[C@@H](CCCNC(=N)N)C(=O)N[C@@H](CC(N)=O)C(=O)O)NC(=O)[C@H](CCCNC(=N)N)NC(=O)CNC(=O)[C@H](C(C)C)NC1=O` [K149chemFE] (H-SCPDGFSYRSWDDFCCPMVGRCLAPRN-OH; disulfide 2-15, 16-22 (inferred); N-terminus assumed), the “binding to C5 (in words)” value on human C5 (peptide after reduction and capping of cysteines with iodoacetamide (IAM)) is “entirely abrogated binding”. Moreover, the “effect in CP ELISA (in words)” value in series [1] is “non-functional, silent binder of C5”. Also, the “effect in AP ELISA (in words)” value in series [2] is on record as “non-functional, silent binder of C5”.

With `CC[C@H](C)[C@@H]1NC(=O)[C@H](C)NC(=O)[C@H](C(C)C)NC(=O)CNC(=O)[C@@H]2CSSC[C@@H](C(=O)NCC(=O)N[C@@H](Cc3c[nH]cn3)C(=O)N[C@@H](Cc3ccccc3)C(=O)N[C@@H](CC(C)C)C(=O)N[C@@H](CC(N)=O)C(=O)N[C@@H](CO)C(=O)NCC(=O)N3CCC[C@H]3C(=O)N[C@@H](CC(N)=O)C(=O)N[C@H](C(=O)N[C@@H](CO)C(=O)N3CCC[C@H]3C(=O)N[C@@H](Cc3ccc(O)cc3)C(=O)N[C@H](C(=O)N[C@@H](CO)C(=O)N[C@H](C(=O)O)[C@@H](C)O)C(C)C)[C@@H](C)CC)NC(=O)CNC(=O)[C@H](Cc3c[nH]c4ccccc34)NC(=O)[C@H](CCCNC(=N)N)NC(=O)CNC(=O)[C@H](CSSC[C@H](NC(=O)[C@@H](N)[C@@H](C)O)C(=O)N3CCC[C@H]3C(=O)N[C@@H](CCC(=O)O)C(=O)NCC(=O)N[C@@H](Cc3c[nH]c4ccccc34)C(=O)N[C@@H](CO)C(=O)N[C@@H](CCC(=O)O)C(=O)N2)NC(=O)[C@H](CCC(=O)O)NC(=O)[C@H](Cc2ccc(O)cc2)NC(=O)CNC(=O)[C@H](Cc2ccc(O)cc2)NC1=O` [K92chemFE] (H-TCPEGWSECGVAIYGYECGRWGCGHFLNSGPNISPYVST-OH; disulfide 2-18, 9-23; N-terminus assumed), binding at human C5 (mean KD, SPR multi-cycle kinetics, mean of n=3) was characterised by a dissociation constant (Kd) of 0.41 nM. The “effect in CP ELISA (in words)” value in series [1] is on record as “no effect”. For the same compound, in series [2] (Figure 6 data, n=3 replicates), the “Alternative pathway ELISA Emax” value is 27%.

With “Palmitoyl-GSSSGCPPGYKSGVDCSPGSECKWGCYAVDGRRYGGYGADSGVGS-OH (disulfide 6-22, 16-26 (inferred)) [K57chemFE-palmitoyl]”, in “Solubility”, the “solubility (in words)” value was “poor solubility”. The “fold reduction in affinity for C5 relative to parent” value on human C5 (SPR, relative to unmodified parent peptide) is “four-fold reduction”. Further, in [3] (1 mg/kg), the clearance (usually the rate of elimination divided by the concentration) was 0.8 mL/min/kg and the half-life (as a rule, the time needed for the level to fall by half in the phase considered) is 96 min.

Consider “GCPPGYKSGVDCSPGSECKWGCYAVDGRRYGGYGADSGVGS-OH (disulfide 2-18, 12-22 (inferred)) [K57chemFE]”, for which the “cross reactivity with rat C5 (in words)” value at rat C5 protein is “specific for human C5”. Besides, the values for the share remaining at 24 h, 6.25 µg/mL in [4], in series [5] and in series [6] were 22%, 76% and 56%, respectively. In series [3] (10 mg/kg), the clearance was 10.6 mL/min/kg. Moreover, the half-life in [3] (10 mg/kg) was 17 min.
